Data: ChEMBL document CHEMBL3886634, “Substituted 3-haloallylamine inhibitors of ASSAO and uses thereof” (2016)
pIC50: −log10 of the molar value.

Experiments:
[1] = target: T1, Amine oxidase [flavin-containing] B (Homo sapiens, UniProt P27338)
T1 sequence (P27338 whole entry): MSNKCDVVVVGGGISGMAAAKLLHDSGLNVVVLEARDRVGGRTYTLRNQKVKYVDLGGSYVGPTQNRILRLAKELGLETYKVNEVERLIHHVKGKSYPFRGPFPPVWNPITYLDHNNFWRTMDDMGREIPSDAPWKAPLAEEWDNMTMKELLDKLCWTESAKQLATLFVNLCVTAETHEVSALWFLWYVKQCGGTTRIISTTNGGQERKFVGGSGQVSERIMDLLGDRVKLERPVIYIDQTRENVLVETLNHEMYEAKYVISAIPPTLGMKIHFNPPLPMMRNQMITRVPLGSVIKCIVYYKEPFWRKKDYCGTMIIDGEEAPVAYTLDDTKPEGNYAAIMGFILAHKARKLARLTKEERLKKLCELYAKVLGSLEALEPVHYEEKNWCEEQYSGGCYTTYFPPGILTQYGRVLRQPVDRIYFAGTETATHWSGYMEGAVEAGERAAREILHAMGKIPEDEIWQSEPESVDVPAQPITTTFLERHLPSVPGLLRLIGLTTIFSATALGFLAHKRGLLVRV

[2] = target: T2, Diamine oxidase [copper-containing] (Homo sapiens, UniProt P19801); experiment: DAO Inhibition Assay: Recombinant human DAO (2.4 μg/mL) was used as source of DAO enzyme activities.
T2 sequence (P19801 whole entry): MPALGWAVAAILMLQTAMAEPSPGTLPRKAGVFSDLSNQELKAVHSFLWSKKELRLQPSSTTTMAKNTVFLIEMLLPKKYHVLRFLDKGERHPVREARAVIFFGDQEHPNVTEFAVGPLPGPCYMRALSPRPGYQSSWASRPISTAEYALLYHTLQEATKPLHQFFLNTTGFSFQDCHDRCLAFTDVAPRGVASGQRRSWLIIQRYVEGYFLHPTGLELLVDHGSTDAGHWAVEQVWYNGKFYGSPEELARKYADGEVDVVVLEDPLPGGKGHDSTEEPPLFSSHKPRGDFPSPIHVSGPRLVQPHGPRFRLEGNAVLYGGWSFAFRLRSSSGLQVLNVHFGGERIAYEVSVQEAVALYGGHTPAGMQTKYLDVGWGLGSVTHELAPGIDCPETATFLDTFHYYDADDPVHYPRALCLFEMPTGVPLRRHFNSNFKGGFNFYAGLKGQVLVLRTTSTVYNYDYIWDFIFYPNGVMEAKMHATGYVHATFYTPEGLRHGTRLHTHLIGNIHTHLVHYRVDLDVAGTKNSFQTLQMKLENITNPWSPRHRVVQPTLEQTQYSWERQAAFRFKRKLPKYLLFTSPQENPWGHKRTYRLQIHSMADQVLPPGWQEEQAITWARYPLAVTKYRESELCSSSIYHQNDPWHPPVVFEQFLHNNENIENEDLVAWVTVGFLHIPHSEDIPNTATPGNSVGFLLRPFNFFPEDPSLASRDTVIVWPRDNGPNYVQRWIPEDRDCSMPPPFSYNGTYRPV

Question: With `NC/C(=C/F)CCc1ccc(F)cc1` [MOFEGILINE] as the compound, how does the pIC50 [1] read?
Answer: 8.30

Question: What about the pIC50 [2] of the same compound?
Answer: < 5.00
